# Experimental data: patent US20260256789A1, “METHODS FOR TREATMENT OF CANCER” (Frontier Medicines Corporation, priority 2022, published 2026)
# Molecular target: T1, KRAS G12C (GMPPNP-loaded) and cRAF Ras-binding domain (Homo sapiens, UniProt P01116, C118S/C51S/C80L/G12C)
# T1 construct: truncated version comprising amino acids 1-169
# Test: Inhibition of KRAS G12C and cRAF binding (AlphaScreen)
# Conditions: KRAS G12C preloaded with GTP analogue GMPPNP, 2 hours preincubation
# Method in brief: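 AlphaScreen used biotin-AviTag KRAS G12C (Cys-light, aa 1-169; 0.5 nM), GMPPNP-loaded, preincubated 2 h with compound (top 50 μM, 1:3, 10 points, 2% DMSO) in pH 7.4 Hepes buffer with 10 μM GMPPNP. GST-cRAF RBD (aa 50-131; 0.75 nM) plus beads were then added for 60-90 min at room temperature, and IC50 came from a 4-parameter fit.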
# T1 sequence (P01116 1-169 isoform P01116-2 G12C/C51S/C80L/C118S): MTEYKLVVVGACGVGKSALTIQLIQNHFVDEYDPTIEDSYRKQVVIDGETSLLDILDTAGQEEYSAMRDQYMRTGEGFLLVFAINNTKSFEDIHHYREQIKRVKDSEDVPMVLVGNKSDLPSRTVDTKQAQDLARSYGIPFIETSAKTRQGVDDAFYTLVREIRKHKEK
row,IC50,Compound
1,≥ 500 nM,C=CC(=O)N1CC[C@@H](N(C)c2nc(OC[C@@]34CCCN3C[C@H](F)C4)nc3c(F)c(-c4cccc5cn[nH]c45)ncc23)C1 [Example 264]
2,100 to 500 nM,"C=CC(=O)N1CC[C@@H](N(C)c2nc(OC[C@@]34CCCN3C[C@H](F)C4)nc3c2CC(C)C(c2nc(N)cc(C)c2C(F)(F)F)C3)C1 (stereo partly drawn) [Example 68, 1-((3R)-3-((7-(6-amino-4-methyl-3-(trifluoromethyl)pyridin-2-yl)-2-(((2R,7aS)-2-fluorohexahydro-1H-pyrrolizin-7a-yl)methoxy)-6-methyl-5,6,7,8-tetrahydroquinazolin-4-yl)(methyl)amino)pyrrolidin-1-yl)prop-2-en-1-one]"
3,< 10 nM,"CN(CC1CN(C(=O)/C=C/c2nc(C(C)(F)F)no2)C1)c1nc(OC[C@@]23CCCN2C[C@H](F)C3)nc2c(F)c(-c3nc(N)cc4cccc(Cl)c34)ncc12 [Example 169, (E)-1-(3-(((7-(3-amino-8-chloroisoquinolin-1-yl)-8-fluoro-2-(((2R,7aS)-2-fluorotetrahydro-1H-pyrrolizin-7a(5H)-yl)methoxy)pyrido[4,3-d]pyrimidin-4-yl)(methyl)amino)methyl)azetidin-1-yl)-3-(3-(1,1-difluoroethyl)-1,2,4-oxadiazol-5-yl)prop-2-en-1-one]"
4,< 10 nM,CN(C)C/C=C/C(=O)N1CC[C@@H](N(C)c2nc(OC[C@@]34CCCN3C[C@H](F)C4)nc3c(F)c(-c4cc(O)cc(Cl)c4C4CC4)ncc23)C1 [Example 197]
5,100 to 500 nM,C=CC(=O)N1CC[C@@H](N(C)c2nc(OC[C@@]34CCCN3C[C@H](F)C4)nc3c2CC(C)C(c2nc(N)cc(C)c2C(F)(F)F)C3)C1 (stereo partly shown) [Example 138]
6,100 to 500 nM,CN(c1nc(OC[C@@]23CCCN2C[C@H](F)C3)nc2c(F)c(-c3nc(N)cc4cccc(Cl)c34)ncc12)[C@@H]1CCN(C(=O)/C=C/CN2CCOCC2)C1 [Example 116]
7,10 to 100 nM,"C=CC(=O)N1CC[C@@H](N(C)c2nc(OCC34CCCN3CCC4)nc3c(F)c(-c4nc(N)cc(C)c4C(F)(F)F)ncc23)C1 [Example 79, (R)-1-(3-((7-(6-amino-4-methyl-3-(trifluoromethyl)pyridin-2-yl)-8-fluoro-2-((tetrahydro-1H-pyrrolizin-7a(5H)-yl)methoxy)pyrido[4,3-d]pyrimidin-4-yl)(methyl)amino)pyrrolidin-1-yl)prop-2-en-1-one]"
8,≥ 500 nM,C=CC(=O)N1CC[C@@H](N(C)c2nc(OC[C@@]34CCCN3C[C@H](F)C4)nc3c(F)c(-c4c(O)cccc4C4CC4)ncc23)C1 [Example 218]
9,< 10 nM,"Cc1noc(/C=C/C(=O)N2CC[C@@H](N(C)c3nc(OC[C@@]45CCCN4C[C@H](F)C5)nc4c(F)c(-c5nc(N)cc6cccc(Cl)c56)ncc34)C2)n1 [Example 150, (E)-1-((R)-3-((7-(3-amino-8-chloroisoquinolin-1-yl)-8-fluoro-2-(((2R,7aS)-2-fluorotetrahydro-1H-pyrrolizin-7a(5H)-yl)methoxy)pyrido[4,3-d]pyrimidin-4-yl)(methyl)amino)pyrrolidin-1-yl)-3-(3-methyl-1,2,4-oxadiazol-5-yl)prop-2-en-1-one]"
10,≥ 500 nM,"Cc1cc(N)nc([C@H]2Cc3nc(OC[C@@]45CCCN4C[C@H](F)C5)nc(N(C)[C@@H]4CCN(C(=O)/C=C/c5nc(C(C)(C)O)no5)C4)c3C[C@@H]2C)c1C(F)(F)F [Example 94, (E)-1-((R)-3-(((6S,7S)-7-(6-amino-4-methyl-3-(trifluoromethyl)pyridin-2-yl)-2-(((2R,7aS)-2-fluorotetrahydro-1H-pyrrolizin-7a(5H)-yl)methoxy)-6-methyl-5,6,7,8-tetrahydroquinazolin-4-yl)(methyl)amino)pyrrolidin-1-yl)-3-(3-(2-hydroxypropan-2-yl)-1,2,4-oxadiazol-5-yl)prop-2-en-1-one]"
11,100 to 500 nM,"C=CC(=O)N1CC[C@@H](N(C)c2nc(OC[C@@]34CCCN3C[C@H](F)C4)nc3c2C[C@@H](C)[C@H](c2nc(N)cc(C)c2C(F)(F)F)C3)C1 [Example 59, 1-((R)-3-(((6R,7R)-7-(6-amino-4-methyl-3-(trifluoromethyl)pyridin-2-yl)-2-(((2R,7aS)-2-fluorohexahydro-1H-pyrrolizin-7a-yl)methoxy)-6-methyl-5,6,7,8-tetrahydroquinazolin-4-yl)(methyl)amino)pyrrolidin-1-yl)prop-2-en-1-one]"
12,10 to 100 nM,"Cc1noc(/C=C/C(=O)N2CC[C@@H](N(C)c3nc(OC[C@@]45CCCN4C[C@H](F)C5)nc4c(F)c(-c5nc(N)cc(C)c5C)ncc34)C2)n1 [Example 52, (E)-1-((R)-3-((7-(6-amino-3,4-dimethylpyridin-2-yl)-8-fluoro-2-(((2R,7aS)-2-fluorotetrahydro-1H-pyrrolizin-7a(5H)-yl)methoxy)pyrido[4,3-d]pyrimidin-4-yl)(methyl)amino)pyrrolidin-1-yl)-3-(3-methyl-1,2,4-oxadiazol-5-yl)prop-2-en-1-one]"
13,10 to 100 nM,Cc1cc(N)nc(-c2ncc3c(N(C)[C@@H]4CCN(C(=O)/C=C/c5nc(C(C)C)no5)C4)nc(OC[C@@]45CCCN4C[C@H](F)C5)nc3c2F)c1C1CC1 [Example 170]
14,100 to 500 nM,CC(C)c1noc(/C=C/C(=O)N2CC(CN(C)c3nc(OC[C@@]45CCCN4C[C@H](F)C5)nc4c(F)c(-c5nc(N)cc6cccc(Cl)c56)ncc34)C2)n1 [Example 118]
15,≥ 500 nM,C=CC(=O)N1CC[C@@H](N(C)c2nc(OC[C@@]34CCCN3C[C@H](F)C4)nc3c(F)c(-c4ccc(F)c(F)c4C4CC4)ncc23)C1 [Example 202]
16,10 to 100 nM,"Cc1noc(/C=C/C(=O)N2CC[C@@H](N(C)c3nc(OC[C@@]45CCCN4C[C@H](F)C5)nc4c(F)c(-c5nc(N)ccc5C(F)(F)F)ncc34)C2)n1 [Example 48, (E)-1-((R)-3-((7-(6-amino-3-(trifluoromethyl)pyridin-2-yl)-8-fluoro-2-(((2R,7aS)-2-fluorotetrahydro-1H-pyrrolizin-7a(5H)-yl)methoxy)pyrido[4,3-d]pyrimidin-4-yl)(methyl)amino)pyrrolidin-1-yl)-3-(3-methyl-1,2,4-oxadiazol-5-yl)prop-2-en-1-one]"
17,≥ 500 nM,"C=CC(=O)N1CC(CN(C)c2nc(OCC34CCCN3CCC4)nc3c(F)c(-c4nc(N)cc(C)c4C4CC4)ncc23)C1 [Example 131, 1-(3-(((7-(6-amino-3-cyclopropyl-4-methylpyridin-2-yl)-8-fluoro-2-((tetrahydro-1H-pyrrolizin-7a(5H)-yl)methoxy)pyrido[4,3-d]pyrimidin-4-yl)(methyl)amino)methyl)azetidin-1-yl)prop-2-en-1-one]"
18,≥ 500 nM,C=CC(=O)N1CC[C@@H](N(C)c2nc(OC[C@@]34CCCN3C[C@H](F)C4)nc3c(F)c(-c4c[nH]nc4C(F)(F)F)ncc23)C1 [Example 196]
19,10 to 100 nM,"CC(C)c1noc(/C=C/C(=O)N2CC[C@@H](N(C)c3nc(OC[C@@]45CCCN4C[C@H](F)C5)nc4c(F)c(-c5nc(N)ccc5C5CC5)ncc34)C2)n1 [Example 8, (E)-1-((R)-3-((7-(6-amino-3-cyclopropylpyridin-2-yl)-8-fluoro-2-(((2R,7aS)-2-fluorotetrahydro-1H-pyrrolizin-7a(5H)-yl)methoxy)pyrido[4,3-d]pyrimidin-4-yl)(methyl)amino)pyrrolidin-1-yl)-3-(3-isopropyl-1,2,4-oxadiazol-5-yl)prop-2-en-1-one]"
20,≥ 500 nM,C=CC(=O)N1CC[C@@H](N(C)c2nc(OC[C@@]34CCCN3C[C@H](F)C4)nc3c(F)c(-c4cc(F)cnc4C4CC4)ncc23)C1 [Example 259]
21,10 to 100 nM,"CN(c1nc(OCC23CCCN2CCC3)nc2c(F)c(-c3nc(N)cc4cccc(Cl)c34)ncc12)[C@@H]1CCN(C#N)C1 [Example 66, (R)-3-((7-(3-amino-8-chloroisoquinolin-1-yl)-8-fluoro-2-((hexahydro-1H-pyrrolizin-7a-yl)methoxy)pyrido[4,3-d]pyrimidin-4-yl)(methyl)amino)pyrrolidine-1-carbonitrile]"
22,100 to 500 nM,Cc1cc(N)nc(-c2ncc3c(N(C)CC4CN(C(=O)/C=C/c5nc(C(C)C)no5)C4)nc(OC[C@@]45CCCN4C[C@H](F)C5)nc3c2F)c1C [Example 85]
23,≥ 500 nM,"Cc1cc(N)nc([C@H]2Cc3nc(OC[C@@]45CCCN4C[C@H](F)C5)nc(N(C)CC4CN(C(=O)/C=C/c5nc(C(C)(C)O)no5)C4)c3C[C@@H]2C)c1C(F)(F)F (single isomer, unassigned) [Example 155]"
24,< 10 nM,CN(CC1CN(C(=O)/C=C/c2nc(C(C)(F)F)no2)C1)c1nc(OC[C@@]23CCCN2C[C@H](F)C3)nc2c(F)c(-c3nc(N)cc4cccc(F)c34)ncc12 [Example 113]
25,100 to 500 nM,"C=CC(=O)N1CC[C@@H](N(C)c2nc(OC[C@@]34CCCN3C[C@H](F)C4)nc3c(F)c(-c4cccc(Cl)c4C4CC4)ncc23)[C@H]1C (single isomer, unassigned) [Example 77]"
26,10 to 100 nM,CN(C)C/C=C/C(=O)N1CC[C@@H](N(C)c2nc(OC[C@@]34CCCN3C[C@H](F)C4)nc3c(F)c(-c4cccc(Cl)c4C4CC4)ncc23)C1 [Example 184]
27,≥ 500 nM,"C=CC(=O)N1CC(CN(C)c2nc(OCC34CCCN3CCC4)nc3c2C[C@H](C)[C@@H](c2nc(N)cc(C)c2C(F)(F)F)C3)C1 (single isomer, unassigned) [Example 50]"
28,≥ 500 nM,"C=CC(=O)N1CC(CN(C)c2nc(OC[C@@]34CCCN3C[C@H](F)C4)nc3c2CC(C)C(c2nc(N)cc(C)c2C(F)(F)F)C3)C1 (stereo partly drawn) [Example 67, 1-(3-(((7-(6-amino-4-methyl-3-(trifluoromethyl)pyridin-2-yl)-2-(((2R,7aS)-2-fluorohexahydro-1H-pyrrolizin-7a-yl)methoxy)-6-methyl-5,6,7,8-tetrahydroquinazolin-4-yl)(methyl)amino)methyl)azetidin-1-yl)prop-2-en-1-one]"
